We go through 20 molecules from patent publication US20250353859A1, “COMPOUNDS AS CCR6 INHIBITORS” (Hoffmann-La Roche Inc., priority 2023, published 2025).

Assay [1] addresses T1, human CCR6 (Homo sapiens, UniProt P51684).
T1 sequence (P51684 1-374): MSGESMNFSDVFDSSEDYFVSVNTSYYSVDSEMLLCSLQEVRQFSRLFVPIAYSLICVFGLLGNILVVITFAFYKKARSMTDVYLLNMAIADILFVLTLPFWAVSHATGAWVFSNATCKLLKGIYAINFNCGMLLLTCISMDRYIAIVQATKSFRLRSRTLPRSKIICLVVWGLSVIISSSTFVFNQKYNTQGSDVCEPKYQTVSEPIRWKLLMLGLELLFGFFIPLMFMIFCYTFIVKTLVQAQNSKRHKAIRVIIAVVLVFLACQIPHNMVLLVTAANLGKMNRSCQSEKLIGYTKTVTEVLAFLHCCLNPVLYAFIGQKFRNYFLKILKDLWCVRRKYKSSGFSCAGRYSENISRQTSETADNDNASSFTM
The assay can be described thus: CHO-K1 CCR6 chemotaxis assay towards CCL20. It is filed as cell-based. To be noted: CHO-K1 cells overexpressing human CCR6; 100 ng/ml CCL20, 4 h; relative Log IC50. An excerpt: Cells overexpressing human CCR6 were used in the chemotaxis assay (DiscoverX, cAMP Hunter™ CHO-K1 CCR6 Gi Cell Line). Growth medium of these cells consisted of DMEM/F12, non-essential Amino acids (1×NEAA, Gibco 11140050), 10% FBS and 1× pen/strep (Gibco 15140). For the chemotaxis assay, Corning Transwell plates were used with a pore size of 8 m (Corning 351164). Cells were harvested using trypsin and diluted to 4*10^6 cells/ml in chemotaxis medium (DMEM, 0.25% BSA, pen/strep). Compounds were four-fold serially diluted in DMSO. Further dilutions were made in chemotaxis medium. Cells were incubated with test compounds for 30 min at 37° C. prior to initiation of the assay (2*10^6 cells/ml). Final DMSO concentration in the assay was 0.2%. Wells of the Transwell plates were filled with 200 μl chemotaxis medium containing 100 ng/ml CCL20 (R&D systems 360-MP). 50 μl of the cell/compound suspension was added to the inserts of the Transwell plates (100,000 cells/insert). The Transwell plates were placed in an incubator at 37° C., 5% CO2 for 4 h. After 4 h, the number of migrated cells was quantified using CellTiter Glo (Promega). Percentage inhibition values were calculated based on the low and high signal obtained with 0.2% DMSO in chemotaxis medium without and with CCL20, respectively. The relative Log IC50 was determined with GraphPad Prism 9 using a four-parameter dose-response model.

For assay [2], the target named is T1, human CCR6. Put plainly: Human CCR6-CRE reporter assay. In kind it is cell-based. Also on record: The second construct contained the open reading frame of human CCR6 in the pUNO1 backbone; host or cells: 293FT cells (transient transfection with TransIT-293). The protocol:
293FT cells were transfected with 2 constructs using TransIT-293 (Mirus). The first construct (pGL4.29, Promega) expressed the luciferase reporter gene luc2P in response to the binding of cAMP-induced CREB to the CREelement in its promoter. The second construct contained the open reading frame of human CCR6 in the pUNO1 backbone under the control of an enhanced CMV promoter(InVivoGen).48 h after transfection, cells were harvested and diluted to 750,000 cells/ml in culture medium (DMEM, 10% FBS, 1× pen/strep(Gibco 15140)). Compounds were 2.5-fold serially diluted in DMSO. Further dilutions were made in assay medium (DMEM, 10% FBS, 1× pen/strep, 6 μM Forskolin, 6 nM CCL20). 4 μl of the compound solution was added to a white MW384 plate, followed by […] of the cell suspension. Final DMSO concentration in the assay was 0.1%. The MW384 plate was placed in an incubator at 37° C., 5% CO2 for 5 h. Luciferase activity was determined by addition of 24 μl of a 2.5× diluted BriteLite luciferase solution(Perkin Elmer), followed by luminescence measurement using a VICTOR Plate reader (Perkin Elmer). […] The relative Log IC50 was determined with GraphPad Prism 9 using a four-parameter dose-response model.
A general note: In a reporter assay the amount or activity of a reporter protein is the signal.

Setting [3] is: 293FT cells transfected with human CCR6 and CRE-luciferase, Forskolin + CCL20, 5 h, relative Log IC50, read-out: CCR6-CRE reporter (converted).

Consider `CC(C)c1nnc2cnc(-c3ccc(S(=O)(=O)N4CCC(Nc5ccc(OC(F)(F)F)cn5)CC4)cc3)cn12` [Example 59, N-(1-{4-[3-(propan-2-yl)-[1,2,4]triazolo[4,3-a]pyrazin-6-yl]benzenesulfonyl}piperidin-4-yl)-5-(trifluoromethoxy)pyridin-2-amine], for which the IC50 against human CCR6 [1] is 7.94 nM; on human CCR6 [2] (setting [3]), 63.1 nM.
As for `Cc1cc(-c2ccc(S(=O)(=O)N3CCC(Nc4ccc(SC(F)(F)F)cc4)CC3)cc2)cn2c(C(C)C)cnc12` [Example 33, 1-{4-[8-methyl-3-(propan-2-yl)imidazo[1,2-a]pyridin-6-yl]benzenesulfonyl}-N-{4-[(trifluoromethyl)sulfanyl]phenyl}piperidin-4-amine], the IC50 was 20 nM on human CCR6 [1] and 100 nM at human CCR6 [2] (setting [3]).
The matching figures for `O=S(=O)(c1ccc(-c2ccc3nccn3c2)cc1)[C@H]1CC[C@H](Nc2cccc(SC(F)(F)F)c2)CC1` [Example 46, N-[trans-4-(4-{imidazo[1,2-a]pyridin-6-yl}benzenesulfonyl)cyclohexyl]-3-[(trifluoromethyl)sulfanyl]aniline]: 794 nM and 63.1 nM.
On human CCR6 [1], `O=c1[nH]nc2ccc(-c3ccc(S(=O)(=O)N4CCC(Nc5ccc(OC(F)(F)F)cc5)CC4)cc3)cn12` [Example 23, 6-{4-[(4-{[4-(trifluoromethoxy)phenyl]Amino}piperidin-1-yl)sulfonyl]phenyl}-2H,3H-[1,2,4]triazolo[4,3-a]pyridin-3-one] gave an IC50 of 39.8 nM.
Take `O=c1[nH]nc2ccc(-c3ccc(S(=O)(=O)N4CCC(Nc5ccc(OC(F)(F)F)cn5)CC4)cc3)cn12` [Example 24, 6-{4-[(4-{[5-(trifluoromethoxy)pyridin-2-yl]Amino}piperidin-1-yl)sulfonyl]phenyl}-2H,3H-[1,2,4]triazolo[4,3-a]pyridin-3-one]: the IC50 against human CCR6 [1] is 31.6 nM; at human CCR6 [2] (setting [3]), 79.4 nM.
For the molecule `Cc1cc(-c2ccc(S(=O)(=O)N3CCC(Nc4ccc(OC(F)(F)F)cn4)CC3)cc2)cn2c(C(C)C)nnc12` [Example 57, N-(1-{4-[8-methyl-3-(propan-2-yl)-[1,2,4]triazolo[4,3-a]pyridin-6-yl]benzenesulfonyl}piperidin-4-yl)-5-(trifluoromethoxy)pyridin-2-amine], the IC50 at human CCR6 [1] was 7.94 nM; on human CCR6 [2] (setting [3]), 39.8 nM.
Turning to `N#Cc1c[nH]c2ccc(-c3ccc(S(=O)(=O)N4CCC(Nc5ccc(OC(F)(F)F)cn5)CC4)cc3)cc12` [Example 15, 5-{4-[(4-{[5-(trifluoromethoxy)pyridin-2-yl]Amino}piperidin-1-yl)sulfonyl]phenyl}-1H-indole-3-carbonitrile], the IC50 against human CCR6 [1] is 10 nM.
In the case of `NC(=O)c1cccc(-c2ccc(S(=O)(=O)N3CCC(Nc4ccc(OC(F)(F)F)cn4)CC3)cc2)c1` [Example 9, 4′-[(4-{[5-(trifluoromethoxy)pyridin-2-yl]Amino}piperidin-1-yl)sulfonyl]-[1,1′-biphenyl]-3-carboxamide], the IC50 on human CCR6 [2] (setting [3]) was 79.4 nM.
As for `O=S(=O)(c1ccc(-c2ccc3nccn3c2)cc1)N1CCC(Nc2ccc(SC(F)(F)F)cn2)CC1` [Example 62, N-[1-(4-{imidazo[1,2-a]pyridin-6-yl}benzenesulfonyl)piperidin-4-yl]-5-[(trifluoromethyl)sulfanyl]pyridin-2-amine], the IC50 at human CCR6 [2] (scaffold variant X = S, R1 = CF3, read-out: Activity in human CCR6-CRE reporter assay) turned out to be 50 nM.
With `NC(=O)c1cc(-c2ccc(S(=O)(=O)[C@H]3CC[C@H](Nc4ccc(SC(F)(F)F)cc4)CC3)cc2)ccn1` [Example 49, 4-(4-{[trans-4-({4-[(trifluoromethyl)sulfanyl]phenyl}Amino)cyclohexyl]sulfonyl}phenyl)pyridine-2-carboxamide], the IC50 at human CCR6 [2] (setting [3]) is 63.1 nM.
On the same count and under the same terms, to `Cc1cc(-c2ccc(S(=O)(=O)N3CCC(Nc4ccc(SC(F)(F)F)cn4)CC3)cc2)cn2c(C(C)C)cnc12` [Example 61, N-(1-{4-[8-methyl-3-(propan-2-yl)imidazo[1,2-a]pyridin-6-yl]benzenesulfonyl}piperidin-4-yl)-5-[(trifluoromethyl)sulfanyl]pyridin-2-amine] belongs 63.1 nM; to `N=S(=O)(c1ccc(-c2ccc3n[nH]c(=O)n3c2)cc1)[C@H]1CC[C@H](Nc2ccc(SC(F)(F)F)cc2)CC1` (stereo partly drawn) [Example 53, 6-(4-{[trans-4-({4-[(trifluoromethyl)sulfanyl]phenyl}Amino)cyclohexyl]sulfonimidoyl}phenyl)-2H,3H-[1,2,4]triazolo[4,3-a]pyridin-3-one], 316 nM; to `O=S(=O)(c1ccc(-c2ccc3nccn3c2)cc1)[C@H]1CC[C@H](Nc2ccc(SC(F)(F)F)cc2)CC1` [Example 45, N-[trans-4-(4-{imidazo[1,2-a]pyridin-6-yl}benzenesulfonyl)cyclohexyl]-4-[(trifluoromethyl)sulfanyl]aniline], 79.4 nM.
On the same count and under the same terms, then `Cc1cc(-c2ccc(S(=O)(=O)[C@H]3CC[C@H](Nc4ccc(SC(F)(F)F)cc4)CC3)cc2)cn2c(C(C)C)cnc12` [Example 48, N-[trans-4-{4-[8-methyl-3-(propan-2-yl)imidazo[1,2-a]pyridin-6-yl]benzenesulfonyl}cyclohexyl]-4-[(trifluoromethyl)sulfanyl]aniline], with 79.4 nM; and `CC(C)c1nnc2ccc(-c3ccc(S(=O)(=O)N4CCC(Nc5ccc(OC(F)(F)F)cn5)CC4)cc3)cn12` [Example 56, N-(1-{4-[3-(propan-2-yl)-[1,2,4]triazolo[4,3-a]pyridin-6-yl]benzenesulfonyl}piperidin-4-yl)-5-(trifluoromethoxy)pyridin-2-amine], with 31.6 nM.
On the same count and under the same terms, to `Cc1nnc2ccc(-c3ccc(S(=O)(=O)N4CCC(Nc5ccc(OC(F)(F)F)cn5)CC4)cc3)cn12` [Example 60, N-[1-(4-{3-methyl-[1,2,4]triazolo[4,3-a]pyridin-6-yl}benzenesulfonyl)piperidin-4-yl]-5-(trifluoromethoxy)pyridin-2-amine] belongs 39.8 nM; to `N#Cc1ccc(-c2ccc(S(=O)(=O)N3CCC(Nc4ccc(OC(F)(F)F)cn4)CC3)cc2)cc1` [Example 7, 4′-[(4-{[5-(trifluoromethoxy)pyridin-2-yl]Amino}piperidin-1-yl)sulfonyl]-[1,1′-biphenyl]-4-carbonitrile], 200 nM.
At human CCR6 [1], `N#Cc1c[nH]c2ccc(-c3ccc(S(=O)(=O)N4CCC(Nc5ccc(OC(F)F)cc5)CC4)cc3)cc12` [Example 29, 5-{4-[(4-{[4-(difluoromethoxy)phenyl]Amino}piperidin-1-yl)sulfonyl]phenyl}-1H-indole-3-carbonitrile] showed an IC50 of 126 nM.
Regarding `CNC(=O)c1cccc(-c2ccc(S(=O)(=O)N3CCC(Nc4ccc(OC(F)(F)F)cc4)CC3C)cc2)c1` (stereo not shown) [Example 38, N-methyl-4′-[(2-methyl-4-{[4-(trifluoromethoxy)phenyl]Amino}piperidin-1-yl)sulfonyl]-[1,1′-biphenyl]-3-carboxamide], the IC50 on human CCR6 [2] (setting [3]) was 126 nM.
As to `CC(C)c1nnc2ccc(-c3ccc(S(=O)(=O)N4CCC(Nc5cc(OC(F)(F)F)ccn5)CC4)cc3)cn12` [Example 70, N-(1-{4-[3-(propan-2-yl)-[1,2,4]triazolo[4,3-a]pyridin-6-yl]benzenesulfonyl}piperidin-4-yl)-4-(trifluoromethoxy)pyridin-2-amine], the IC50 on human CCR6 [2] (setting [3]) was 3160 nM.
